Data as given in article PMC8066157, “Bovine Viral Diarrhea Virus (BVDV): A Preliminary Study on Antiviral Properties of Some Aromatic and Medicinal Plants” (Pathogens, 2021).
“Also recorded” adds a separate entry of the source. Where two headings read alike, the source gives them in different places.

Key:
BVDV [1] = experiment: microbe, parasite or virus in culture; type: cell-based, bovine viral diarrhea virus (strain NADL); settings: read-out: EC50 BVDV
MDBK cells = experiment: Cytotoxicity in mock-infected MDBK cells (MTT); settings: for CC50: read-out: CC50 MDBK, mock-infected MDBK cells, MTT, pure compounds
[2] = Cytotoxicity in mock-infected MDBK cells (MTT); settings: bovine (Bos taurus), mock-infected MDBK cells (Madin-Darby bovine kidney)
DENV-2 = type: cell-based, dengue virus (DENV-2)
WNV = type: cell-based, west Nile virus
YFV = type: cell-based, yellow fever virus (strain 17-D)
RSV = experiment: microbe, parasite or virus in culture; type: cell-based, human respiratory syncytial virus (strain A2); settings: human respiratory syncytial virus, Vero 76, read-out: EC50 RSV
in vitro [3] = settings: monkey (Cercopithecus aethiops)
in vitro [4] = settings: human
VV = type: cell-based, vaccinia virus
CV-B5 = experiment: organism not typed; type: cell-based, coxsackie type B5; settings: Vero 76, read-out: EC50 CV-B5
BVDV [5] = experiment: Virucidal assay against BVDV virions; set-up: species or system bovine viral diarrhea virus; settings: 100 µM, 2 h, 4 and 37 °C
BVDV [6] = type: cell-based, bovine viral diarrhea virus; settings: 100, 20, 4, 0.8 µM
[7] = Bovine viral diarrhea virus isolates and strains, MDBK

Molecule | EC50 (BVDV [1]) | CC50 (MDBK cells) | EC50 (BVDV [1]; [7]) | CC50 [2] | further results
2+β Thujone | > 100 µM | > 100 µM | – | – | –
CC12CCC(CC1)C(C)(C)O2 [1,8-Cineole] | – | – | > 100 µM | > 100 µM | –
C[C@@]1(O)[C@H](O)[C@@H](CO)O[C@H]1n1cnc2c(=O)[nH]c(N)nc21 [2′-C-Me-Guanosine] | 1.6 ± 0.2 µM | > 100 µM | – | – | EC50 (DENV-2): 0.3 µM; EC50 (WNV): 0.4 µM; EC50 (YFV): 1.2 µM; CC50 (BHK cells): 60 µM
O=c1cnn([C@@H]2O[C@H](CO)[C@@H](O)[C@H]2O)c(=O)[nH]1 [6-Aza-Uridine] | – | – | – | – | EC50 (RSV): 1 µM; CC50 (in vitro [3]): 4 µM
C=C1C2CCC(C2)C1(C)C (centres unmarked) [Camphene] | – | – | > 100 µM | > 100 µM | –
CC12CCC(CC1=O)C2(C)C (centres unmarked) [Camphor] | – | – | > 100 µM | > 100 µM | –
O=C1Nc2ccc(Cl)cc2[C@@](C#CC2CC2)(C(F)(F)F)O1 [Efavirenz] | – | – | – | – | CC50 (in vitro [4]): 40 µM
C=C(C)[C@H]1CC=C(C)CC1 [Limonene] | > 100 µM | > 100 µM | – | – | –
COc1c(C)c2c(c(O)c1C/C=C(\C)CCC(=O)O)C(=O)OC2 [Mycophen.Ac.] | – | – | – | – | EC50 (VV): 1.5 µM; CC50 (Vero-76 cells): 20 µM
Cc1cc(CCCOc2c(C)cc(-c3noc(C(F)(F)F)n3)cc2C)on1 [Pleconaril] | – | – | – | – | EC50 (CV-B5): 0.005 µM; CC50 (in vitro [3]): > 100 µM
C=C1CC/C=C(\C)CC[C@@H]2[C@@H]1CC2(C)C [Trans-Caryophyllene] | – | – | 90 ± 1 µM | > 100 µM | –
C/C1=C\CC/C(C)=C/CC(C)(C)/C=C/C1 [α-Humulene] | 36 ± 0.5 µM | > 100 µM | – | – | Virucidal activity (BVDV titer of treated vs untreated virus) (BVDV [5]): No significant differences; Reduction of BVDV titer (yield reduction) (BVDV [6]): dose-dependent reduction of virus titer; also recorded: reduce the viral BVDV titer in vitro assays in a dose-dependent manner; Cytotoxicity (in words) (MDBK cells; MDBK cells): non-cytotoxic
C=C1CCC2CC1C2(C)C (stereo not drawn) [β-Pinene] | – | – | > 100 µM | > 100 µM | –
